Experimental data: US20250066722A1, “METHODS FOR PRODUCTION OF FUNCTIONAL NEURONS” (AXENT BIOSCIENCES INC., priority 2021, published 2025)

Test system: Human induced pluripotent stem cells (hPSCs)
Assay: 3D dopaminergic neuron differentiation of hPSCs with tyrosine hydroxylase immunocytochemistry
Assay type: cell-based
Settings: for expression of tyrosine hydroxylase in differentiating aggregates: by day 20, immunocytochemistry, FGF8, TGF-β, BDNF, GDNF removed and replaced with BT-13 or Q525, FIGS. 3 and 5; for production of hPSC-derived neurons expressing the functional biomarker Tyrosine Hydroxylase: replacement of GDNF, BDNF and TGF-β in maturation media from Day 11, BT-13 5 μM or Q525 5 nM, with DAPT 10 uM, 3D AXgel
Description: Human Pluripotent Stem Cell Culture. Human […] (hPSCs) (ThermoFisher A 18945) were subcultured in monolayer format on a layer of 1% Matrigel and maintained in Essential 8 medium during expansion. At 80% confluency, H9s were passaged using Versene solution and replated at a 1:8 split.
3D hPSC Culture Seeding. hPSCs were dissociated into single cells using Accutase solution and resuspended in Essential 8 (E8) medium containing 10 μM Y-27632 (Rock Inhibitor, RI). hPSCs were counted and resuspended at defined densities in 11% AXgel on ice. Cells suspended in AXgel were dispensed into a multi-well tissue culture plate and heated to 37° C. for 15 minutes and afterward pre-warmed E8 medium containing 10 μM RI was added to each well. 3D cell suspensions remained in E8 with RI for 2 days (from Day −2 to Day 0).
3D Dopaminergic Neuron Differentiation. Starting Day 0, hPSCs in AXgel were transitioned to differentiation media to induce neural lineage commitment and subsequently specification into midbrain dopaminergic neurons. Starting Day 11, neural precursors were transitioned to maturation media containing GDNF agonist BT-13 (5 μM) or Q525 (5 nM) in place of proteins GDNF, BDNF, and TGF-β. Media formulations were according to Table 2: […]
Immunocytochemistry. At the endpoint of the experiment, cell aggregates were harvested from AXgel by replacing warm media with chilled media and plated on 8-chamber culture slides coated with 10 μg/mL laminin and cultured overnight in the incubator to allow aggregates to adhere to the surface. Aggregates attached to the culture slide were then fixed using 4% paraformaldehyde (PFA) for 15 minutes. Aggregates were washed twice in PBS for 5 minutes each and incubated in 0.25% Triton-X+5% donkey serum in PBS for 10 minutes to permeabilize cells. After permeabilization, aggregates were washed 5 times in 5% donkey serum for 5 minutes each and incubated with primary antibodies of interest diluted in PBS+donkey serum (dilution details in Table 3), and stored overnight at 4° C. After primary staining, aggregates were washed twice in PBS for 5 minutes each and incubated in solution containing the corresponding secondary antibodies (dilution details in Table 3), and incubated at 37° C. for 2 hours. After secondary staining, aggregates were washed twice in PBS for 5 minutes each and culture slides were mounted with a cover slip to be imaged.
Microscopy. Live cell aggregates suspended in AXgel were periodically imaged during the experiment using an EVOS XL Core Imaging System for transmitted light microscopy available in the Cell and Tissue Analysis Facility through QB3-Berkeley. Fixed, stained, and mounted cell aggregates were imaged with a 20× or 40× objective using a Perkin Elmer Opera Phenix automated confocal fluorescence microscope available in the High-Throughput Screening Facility through QB3-Berkeley. Laser exposure time and power was kept constant for a fluorescence channel within an imaging set.

| Structure (SMILES) | expression of tyrosine hydroxylase in differentiating aggregates | tyrosine hydroxylase-positive neurons (FIG. 5) (day 18, 10 nM Q525 in differentiation media free of GDNF, BDNF and TGFβ3, induction media without FGF8) | production of hPSC-derived neurons expressing the functional biomarker Tyrosine Hydroxylase |
| --- | --- | --- | --- |
| O=C1C(Nc2ccc(CO)cc2)=C(O)C(=O)c2ncccc21 [Q525] | detected in neuronal cell bodies within all of the differentiating aggregates | tyrosine hydroxylase-positive neurons at day 18 | sufficient to produce hPSC-derived neurons expressing the functional biomarker Tyrosine Hydroxylase |
| CCN(CC)S(=O)(=O)c1ccc(OC)c(N2CCN(C(=O)c3ccc(F)cc3C(F)(F)F)CC2)c1 [BT-13, N,N-diethyl-3-[4-[4-fluoro-2-(trifluoromethyl)-benzoyl]piperazin-1-yl]-4-methoxybenzenesulfonamide] | detected in neuronal cell bodies within all of the differentiating aggregates |  | sufficient to produce hPSC-derived neurons expressing the functional biomarker Tyrosine Hydroxylase |
